Assay results from patent US20260048063A1, “FUSED AMINO PYRIMIDINE COMPOUNDS FOR TREATMENT OF NEURODEGENERATIVE DISORDERS” (Ovid Therapeutics Inc., priority 2024, published 2026).

Experiments:
mice [1] = assay: KA induced SE, EEG, injection directly into the hippocampus; type: in vivo; conditions: intrahippocampal pretreatment, DZ 2 h after KA
Method: 30 or 60 min later mice were injected with KA (20 mg/kg) and 2 h later with DZ as detailed above.

mice [2] = assay: Kainic acid (KA) induced SE, EEG recording, pretreatment; type: in vivo; conditions: 50 mg/kg SC pretreatment; vehicle 4.2±2.4×10^−6
Excerpt: This model was chosen due to the similarities with patients undergoing SE, as KA-induced seizures become refractory to benzodiazepines (BDZs) within minutes (Betjemann and Lowenstein, Lancet Neurol 14, 615-624 (2015); Crawshaw and Cock, (2020a) [Seizure: Eur. J. Epilep. 75 (2020) 145-152] Seizure 80, 282; Lee et al., 2022, supra; Reddy and Kuruba, Int J Mol Sci 14, 18284-18318 (2013)).
EEG recordings and analysis. WT C57Bl/6J adult male mice (12 weeks) were anesthetized with isofluorane and implanted with EEG/EMG electrodes and allowed to recover for 7 days prior to experimentation. […] 2 h following KA administration mice were injected with a saturating concentration of diazepam (DZ) 10 mg/kg (IP) and recordings were extended for a further 60 min. […] LabChart 8 software was used for data analysis. […]
To provide quantitative insights on the effects of KA, raw EEG recordings were subject to Fast-Fourier transformation (8K FFT size, Hann (cosine-bell), 87.50% window overlap) for frequencies between 0-100 Hz 2 h after KA injection (Lee et al., 2022, supra).

[3] = PK study, brain and plasma levels by LC-MS/MS; type: in vivo, mice
Method: PK studies. […] Plasma and brain samples were rapidly frozen on dry ice.
Drug accumulation in the brain was examined following SC injection (FIG. 4C; 50 mg/kg).

KCC2-S940A = biological target: T1, KCC2-S940A (Homo sapiens, UniProt Q9H2X9, S963A); assay: Tl+ flux assay, HEK-293 cells expressing KCC2-S940A; type: cell-based
T1 construct: expressed in transfected cells; host or cells: HEK-293
T1 sequence (Q9H2X9 1-1116 isoform Q9H2X9-2 S940A): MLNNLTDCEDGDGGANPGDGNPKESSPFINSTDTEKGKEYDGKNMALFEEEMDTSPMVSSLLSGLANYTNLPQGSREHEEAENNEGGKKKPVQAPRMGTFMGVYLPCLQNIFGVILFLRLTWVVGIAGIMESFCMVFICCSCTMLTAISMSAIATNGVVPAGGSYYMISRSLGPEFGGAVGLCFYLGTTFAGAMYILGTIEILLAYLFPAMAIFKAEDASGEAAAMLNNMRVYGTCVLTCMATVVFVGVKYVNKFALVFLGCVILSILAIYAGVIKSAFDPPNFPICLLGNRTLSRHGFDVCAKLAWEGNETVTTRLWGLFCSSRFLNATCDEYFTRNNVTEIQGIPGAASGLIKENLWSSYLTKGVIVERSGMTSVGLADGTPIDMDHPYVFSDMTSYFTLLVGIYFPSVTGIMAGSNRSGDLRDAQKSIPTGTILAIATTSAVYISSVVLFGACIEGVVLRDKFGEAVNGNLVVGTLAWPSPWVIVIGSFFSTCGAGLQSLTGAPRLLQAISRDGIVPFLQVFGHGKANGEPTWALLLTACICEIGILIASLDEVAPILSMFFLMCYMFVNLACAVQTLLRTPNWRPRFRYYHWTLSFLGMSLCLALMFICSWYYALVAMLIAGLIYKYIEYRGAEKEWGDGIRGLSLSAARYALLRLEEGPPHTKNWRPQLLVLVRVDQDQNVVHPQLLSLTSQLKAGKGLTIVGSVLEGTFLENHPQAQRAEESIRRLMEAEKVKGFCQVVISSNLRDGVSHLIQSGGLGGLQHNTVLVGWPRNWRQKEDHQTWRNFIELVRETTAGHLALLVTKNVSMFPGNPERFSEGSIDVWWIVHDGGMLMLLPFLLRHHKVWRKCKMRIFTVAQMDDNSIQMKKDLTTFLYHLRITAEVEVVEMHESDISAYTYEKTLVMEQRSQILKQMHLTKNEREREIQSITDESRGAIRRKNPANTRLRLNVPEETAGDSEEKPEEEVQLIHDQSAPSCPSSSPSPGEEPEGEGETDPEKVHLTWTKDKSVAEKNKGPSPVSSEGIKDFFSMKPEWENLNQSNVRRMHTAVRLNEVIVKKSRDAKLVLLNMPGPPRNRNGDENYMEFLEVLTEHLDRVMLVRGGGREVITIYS
Method: FLIPR TI Flux assay. HEK-293 cells were washed with HBSS, and then incubated with loading buffer containing TI sensitive fluorescent dye (https://www.moleculardevices.com), 20 μM bumetanide 20 μM ouabain and 2.5 mM probenecid for 1 h at room temperature (RT) under control conditions or with drugs in the dark using a FlexStation 3 microplate reader (Molecular Devices) and imaged […] for 30 min. Stimulus buffer was added containing 5 mM K^+/0.5 mM Tl^+ and cells were imaged every 1.5 over a 190 second time course The initial rate Tl^+ uptake (Relative Fluorescence Units (RFU) per second) was determined following addition of the stimulus buffer as outlined previously (Conway et al., 2017, supra) (Lee et al., 2022, supra).
Several studies have shown that the activity and plasma membrane accumulation of KCC2 is potentiated via phosphorylation of S940, a process mediated by the activity of protein kinase C and protein phosphatase 1 (Lee et al., 2011, supra; Lee et al., J Biol Chem 282, 29777-29784 (2007); Moore et al., Proc. Natl. Acad. Sci. U.S.A. 115, 10166-10171 (2018); Moore et al., Trends Neurosci. 40, 555-571 (2017); Silayeva et al., Proc. Natl. Acad. Sci. U.S.A. 112, 3523-3528 (2015)). […] Compared to KCC2, effects on KCC3, KCC4, and NKCC1 were only seen at concentrations more than 35-fold that of KCC2 (>100 μM) (FIG. 1G).

mice [4] = conditions: in vivo
[5] = test system: panel of 144 protein kinases; assay: SelectScreen protein kinase panel; type: biochemical; conditions: 144 protein kinases incl. PKC isoforms, OSR1, SPAK, WNK
Method: Aliquots of HEK-293 cells expressing KCC2 were exposed to 30 μM SSA, heated from 37-55° C. The remaining level of soluble native KCC2 at each temperature was measured by immunoblotting and normalized to the level seen at 37° C. which was given a value of 1. […] This panel included protein kinase C isoforms, OSR1, SPAK (STK39) and with-no-lysine kinases (WNK), all of which phosphorylate KCC2 on multiple residues to indirectly modify its activity (Kahle et al., 2013, supra; Smalley et al., 2020, supra).

mice [6] = assay: TUNEL staining of hippocampal CA1 48 h after KA injection; type: in vivo
Method: To determine if KCC2 activators have an impact on the extent of neuronal injury, brain sections from mice that survived for 48 h after KA injection were subjected to Terminal deoxynucleotidyl transferase dUTP nick end (TUNEL) staining to visualize dead cells, and counterstained with DAPI. The number of TUNEL positive cells in the CA1 region of the hippocampus were then compared between treatment groups.

mice [7] = assay: KA induced ongoing SE, EEG, treatment 2 h after KA; type: in vivo; conditions: given IP 2 h after KA
Method: EEG recordings and analysis. WT C57Bl/6J adult male mice (12 weeks) were anesthetized with isofluorane and implanted with EEG/EMG electrodes and allowed to recover for 7 days prior to experimentation. […] 2 h following KA administration mice were injected with a saturating concentration of diazepam (DZ) 10 mg/kg (IP) and recordings were extended for a further 60 min. […] LabChart 8 software was used for data analysis. Epileptiform activity was identified by changes in the amplitude of electrographic activity characterized by consistent changes in the power of the Fast Fourier transform (FFT) of the EEG and abnormal activity characterized by periods of rhythmic spiking lasting longer than 30 s (Moore et al., 2017, supra; Silayeva et al., 2015, supra; Sivakumaran et al., J. Neurosci. 35, 8291-8296 (2015)).
To evaluate the potential of KCC2 activators to terminate ongoing SE, the KA model described above was employed. Mice were injected with KA (20 mg/Kg; IP). […] Spectral data were then subjected to FFT and the total EEG power between 1-100 Hz of the 2 h following KA treatment (pre-drug) and 30 min following their injection (post-drug) were compared (FIG. 6B). In mice treated with DZ alone variable effects were observed, from large increases to modest reductions in EEG power, but these effects were not significant (FIG. 6C; pre=1.1±0.2×10^−6, post=4.4±7.4×10^−7 V^2, p=0.214, n=13-14 mice). […]

| Structure (SMILES) | effect of DZ on seizure parameters in pretreated mice (mice [1]) | total EEG power 2 h after KA (pre DZ) (mice [2]) | brain level 8 h later ([3]; 50 mg/kg SC) | time of maximal concentration in the brain ([3]; 50 mg/kg SC) [h] | concentration at 30 min ([3]; mouse, in vivo, 25 mg/kg IV bolus, read-out: accumulation in brain and plasma, third value not assigned) [µM] | activity of KCC2-S940A construct (KCC2-S940A) | effects on mouse behavior in the open field (mice [4]) | activity of the kinase panel [5] | TUNEL positive CA1 cells (mice [6]) [dead cells/ROI] | mean time to suppression (EEG power reduced to 50%) (mice [7]) [min] |
| --- | --- | --- | --- | --- | --- | --- | --- | --- | --- | --- |
| C[C@@H]1CN(c2nc3c(c(Nc4ccc(C5CCCCC5)cc4)n2)COC3)CCO1 [Compound A, (R)—N-(4-cyclohexylphenyl)-2-(2-methylmorpholino)-5,7-dihydrofuro[3,4-d]pyrimidin-4-amine] | DZ significantly reduced seizure parameters | 6.9±3.2×10^−7 V^2 | maintained | 4 | 11.2 | increased the activity of KCC2-S940A construct | no gross effects on mouse behavior | did not modify the activity |  |  |
| CN1C(=O)CN=C(c2ccccc2)c2cc(Cl)ccc21 [DZ, diazepam] |  |  |  |  |  |  |  |  | 40.93±3.35 | 32.5 ± 6.7 |
